Measured values published in patent publication US20050090522A1 (priority 2001, published 2005).
pEC50: −log10 of the molar value. Where two headings read alike, the source gives them in different places.

Tested on: HIV-1
Experiment: HIV-1 single-round infectious luciferase reporter virus (pseudotype) assay in HeLa CD4 CCR5 cells
Type: cell-based
Method in brief: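 Reporter pseudovirus produced in 293 cells infected HeLa cells expressing CD4/CCR5 at MOI ~0.01, with compound present at <10 μM final. Infection was quantified as luciferase luminescence after 72 h.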

[1] = Human immunodeficiency virus 1, HeLa-CD4/CCR5, read-out: EC50 Group from TABLE 1, HeLa CD4 CCR5 cells, single-round infectious luciferase reporter virus

| Structure (SMILES) | pEC50 [1] | pEC50 (Human immunodeficiency virus 1, HeLa-CD4/CCR5, read-out: EC50 Group from Table 1, Table 4, HeLa CD4 CCR5 cells, single-round luciferase reporter virus) |
| --- | --- | --- |
| COc1cnc(-c2cn(C)c(=O)cn2)c2[nH]cc(C(=O)C(=O)N3CCN(C(=O)c4ccccc4)CC3)c12 [Example 138, 1-(benzoyl)-4-[(4-methoxy-7-(1-methylpyrazin-2-on-5-yl)-6-azaindol-3-yl)-oxoacetyl]piperazine] | > 6.00 |  |
| C[C@@H]1CN(C(=O)c2ccccn2)CCN1C(=O)C(=O)c1c[nH]c2c(-c3cnccn3)ncc(F)c12 [Example 141] | > 6.00 |  |
| Nc1cnc(-c2ncc(Cl)c3c(C(=O)C(=O)N4CCN(C(=O)c5ccccc5)CC4)c[nH]c23)cn1 [Example 143] | > 6.00 |  |
| O=C(C(=O)N1CCN(C(=O)c2ccccc2)CC1)c1c[nH]c2c(-c3cncnc3)ncc(Cl)c12 [Example 144] | > 6.00 |  |
| O=C(Nc1cccnc1)c1ncc(F)c2c(C(=O)C(=O)N3CCN(C(=O)c4ccccc4)CC3)c[nH]c12 [Example 147] | > 6.00 |  |
| O=C(C(=O)N1CCN(C(=O)c2ccccc2)CC1)c1c[nH]c2c(-c3c[nH]c(=O)cn3)ncc(Cl)c12 [Example 149] | > 6.00 |  |
| C[C@@H]1CN(C(=O)c2ccccc2)CCN1C(=O)C(=O)c1c[nH]c2c(-c3cnc(N)cn3)nccc12 [Example 150, (R)-1-benzoyl-3-methyl-4-[(7-(5-amino-pyrazin-2-yl)-6-azaindol-3-yl)-oxoacetyl]piperazine] | > 6.00 |  |
| COc1cnc(-c2cncs2)c2[nH]cc(C(=O)C(=O)N3CCN(C(=O)c4ccccn4)CC3)c12 [Example 151, 1-picolinoyl-4-[(4-methoxy-7-(thiazol-5-yl)-6-azaindol-3-yl)-oxoacetyl]piperazine] | > 6.00 |  |
| O=C(Nc1cccnc1)c1ncc(Cl)c2c(C(=O)C(=O)N3CCN(C(=O)c4ccccc4)CC3)c[nH]c12 [Example 152] | > 6.00 |  |
| C[C@@H]1CN(C(=O)c2ccccc2)CCN1C(=O)C(=O)c1c[nH]c2c(-c3cnc(N)nc3)nccc12 [Example 153, (R)-1-benzoyl-3-methyl-4-[(7-(2-amino-pyrimidin-5-yl)-6-azaindol-3-yl)-oxoacetyl]piperazine] | > 6.00 |  |
| O=C(C(=O)N1CCN(C(=O)c2ccccc2)CC1)c1c[nH]c2c(-c3cccnn3)ncc(F)c12 [Example 154] | > 6.00 |  |
| COc1cnc(C2=NC(C)(C)CO2)c2[nH]cc(C(=O)C(=O)N3CCN(C(=O)c4ccccc4)CC3)c12 [Example 156] | > 6.00 |  |
| C[C@@H]1CN(C(=O)c2ccccc2)CCN1C(=O)C(=O)c1c[nH]c2c(-c3cnc(O)cn3)nccc12 [Example 157] | > 6.00 |  |
| C[C@@H]1CN(C(=O)c2ccccc2)CCN1C(=O)C(=O)c1c[nH]c2c(-c3cnc(O)nc3)nccc12 [Example 162] | > 6.00 |  |
| C[C@@H]1CN(C(=O)c2ccccc2)CCN1C(=O)C(=O)c1c[nH]c2c(-c3ccc(C(=O)O)cc3)nccc12 [Example 164] | > 6.00 |  |
| CC(C)(C)OC(=O)N1CCN(C(=O)C(=O)c2c[nH]c3c(-c4cnccn4)ncc(Cl)c23)CC1 [Example 165] | > 6.00 |  |

| Structure (SMILES) | pEC50 [1] | pEC50 (Human immunodeficiency virus 1, HeLa-CD4/CCR5, read-out: EC50 Group from Table 1, Table 4, HeLa CD4 CCR5 cells, single-round luciferase reporter virus) |
| --- | --- | --- |
| O=C(C(=O)N1CCN(C(=O)c2ccc(Br)o2)CC1)c1c[nH]c2c(-c3ncon3)ncc(F)c12 [Example 167] | > 6.00 |  |
| C[C@@H]1CN(C(=O)c2ccccc2)CCN1C(=O)C(=O)c1c[nH]c2c(C(=O)c3cccs3)ccnc12 [Example 168, 1-benzoyl-3-(R)-methyl-4-[(7-(2-thienylcarbonyl)-4-azaindol-3-yl)-oxoacetyl]piperazine] |  | > 6.00 |
| COc1cnc(-c2cnc(NC(=O)c3ccncc3)s2)c2[nH]cc(C(=O)C(=O)N3CCN(C(=O)c4ccccc4)CC3)c12 [Example 169] | > 6.00 |  |
| COc1cnc(-c2cnc(C)nc2)c2[nH]cc(C(=O)C(=O)N3CCN(C(=O)c4ccccc4)CC3)c12 [Example 171, 1-benzoyl-4-[(4-methoxy-7-(2-methyl-pyrimidin-5-yl)-6-azaindol-3-yl)-oxoacetyl]piperazine] | > 6.00 |  |
| COc1cnc(-c2ccc3[nH]ccc3c2)c2[nH]cc(C(=O)C(=O)N3CCN(C(=O)c4ccccn4)CC3)c12 [Example 172, 1-picolinoyl-4-[(4-methoxy-7-(indol-5-yl)-6-azaindol-3-yl)-oxoacetyl]piperazine] | > 6.00 |  |
| COc1cnc(-c2cscn2)c2[nH]cc(C(=O)C(=O)N3CCN(C(=O)c4ccccn4)CC3)c12 [Example 173, 1-picolinoyl-4-[(4-methoxy-7-(thiazol-4-yl)-6-azaindol-3-yl)-oxoacetyl]piperazine] | > 6.00 |  |
| COc1cnc(-c2cscn2)c2[nH]cc(C(=O)C(=O)N3CCN(C(=O)c4ccccc4)CC3)c12 [Example 174, 1-benzoyl-4-[(4-methoxy-7-(thiazol-4-yl)-6-azaindol-3-yl)-oxoacetyl]piperazine] | > 6.00 |  |
| CCN(CC)CCN(C)c1cnc(-c2ncc(OC)c3c(C(=O)C(=O)N4CCN(C(=O)c5ccccc5)CC4)c[nH]c23)cn1 [Example 175, 1-benzoyl-4-[(4-methoxy-7-(2-(N-diethylaminoethyl-N-methyl)aminopyrazin-S-yl)-6-azaindol-3-yl)-oxoacetyl]piperazine] | > 6.00 |  |
| COc1cnc(-c2cnc(N(C)CCN(C)C)cn2)c2[nH]cc(C(=O)C(=O)N3CCN(C(=O)c4ccccc4)CC3)c12 [Example 176, 1-benzoyl-4-[(4-methoxy-7-(2-(N-dimethylaminoethyl-N-methyl)aminopyrazin-S-yl)-6-azaindol-3-yl)-oxoacetyl]piperazine] | > 6.00 |  |
| COc1cnc(-c2cnc(N3CCNCC3)cn2)c2[nH]cc(C(=O)C(=O)N3CCN(C(=O)c4ccccc4)CC3)c12 [Example 177, 1-benzoyl-4-[(4-methoxy-7-(2-(N-piperazinyl)-pyrazin-5-yl)-6-azaindol-3-yl)-oxoacetyl]piperazine] | > 6.00 |  |
| COc1cnc(-c2cnc(N3CCOCC3)cn2)c2[nH]cc(C(=O)C(=O)N3CCN(C(=O)c4ccccc4)CC3)c12 [Example 178, 1-benzoyl-4-[(4-methoxy-7-(2-(4-morpholinyl)-pyrazin-5-yl)-6-azaindol-3-yl)-oxoacetyl]piperazine] | > 6.00 |  |
| CCNc1cnc(-c2ncc(OC)c3c(C(=O)C(=O)N4CCN(C(=O)c5ccccn5)CC4)c[nH]c23)cn1 [Example 179, 1-picolinoyl-4-[(4-methoxy-7-(2-ethylaminopyrazin-5-yl)-6-azaindol-3-yl)-oxoacetyl]piperazine] | > 6.00 |  |
| COc1cnc(-c2cnc(C)cn2)c2[nH]cc(C(=O)C(=O)N3CCN(C(=O)c4ccccn4)CC3)c12 [Example 180, 1-picolinoyl-4-[(4-methoxy-7-(2-methylpyrazin-5-yl)-6-azaindol-3-yl)-oxoacetyl]piperazine] | > 6.00 |  |
| COc1cnc(-c2cnc(C3CC3)cn2)c2[nH]cc(C(=O)C(=O)N3CCN(C(=O)c4ccccn4)CC3)c12 [Example 181, 1-picolinoyl-4-[(4-methoxy-7-(2-cyclopropanyl-pyrazin-5-yl)-6-azaindol-3-yl)-oxoacetyl]piperazine] | > 6.00 |  |
| COc1cnc(-c2ncc(OC)c3c(C(=O)C(=O)N4CCN(C(=O)c5ccccn5)CC4)c[nH]c23)cn1 [Example 182, 1-picolinoyl-4-[(4-methoxy-7-(2-methoxy-pyrazin-5-yl)-6-azaindol-3-yl)-oxoacetyl]piperazine] | > 6.00 |  |
| COc1cnc(-c2cc3ccccc3o2)c2[nH]cc(C(=O)C(=O)N3CCN(C(=O)c4ccccn4)CC3)c12 [Example 183, 1-picolinoyl-4-[(4-methoxy-7-(benzofuran-2-yl)-6-azaindol-3-yl)-oxoacetyl]piperazine] | > 6.00 |  |
